Counter-ions that a name gives are not always drawn.
What follows are molecules tested against ROCK2 (Homo sapiens (Human), UniProt O75116) (assay: ROCK2 kinase inhibition assay (FITC peptide substrate, LABCHIP 3000 Reader)). Settings: 5 μM ATP, 1.5 μM peptide substrate.
Type: biochemical
Description: The effectiveness of compounds of the present invention as ROCK inhibitors can be determined in a 30 μL assay containing 20 mM HEPES, pH 7.5, 20 mM MgCl2, 0.015% Brij-35, 4 mM DTT, 5 μM ATP and 1.5 μM peptide substrate (FITC-AHA-AKRRRLSSLRA-OH) (SEQ ID NO. 1). Compounds were dissolved in DMSO so that the final concentration of DMSO was <2%, and the reaction was initiated with Rho kinase variants. After incubation, the reaction was terminated by the addition of EDTA and the phosphorylated and non-phosphorylated peptides separated using a LABCHIP® 3000 Reader (Caliper Life Sciences). […] Compounds were tested in dose-response format, and the inhibition of kinase activity was calculated at each concentration of compound. The inhibition data were fit using a curve-fitting program to determine the IC50; i.e., the concentration of compound required to inhibit 50% of kinase activity.
Representative examples were tested in the ROCK2 assay described above and found having ROCK2 inhibitory activity.

Sequence of ROCK2 (O75116 whole entry, species assumed): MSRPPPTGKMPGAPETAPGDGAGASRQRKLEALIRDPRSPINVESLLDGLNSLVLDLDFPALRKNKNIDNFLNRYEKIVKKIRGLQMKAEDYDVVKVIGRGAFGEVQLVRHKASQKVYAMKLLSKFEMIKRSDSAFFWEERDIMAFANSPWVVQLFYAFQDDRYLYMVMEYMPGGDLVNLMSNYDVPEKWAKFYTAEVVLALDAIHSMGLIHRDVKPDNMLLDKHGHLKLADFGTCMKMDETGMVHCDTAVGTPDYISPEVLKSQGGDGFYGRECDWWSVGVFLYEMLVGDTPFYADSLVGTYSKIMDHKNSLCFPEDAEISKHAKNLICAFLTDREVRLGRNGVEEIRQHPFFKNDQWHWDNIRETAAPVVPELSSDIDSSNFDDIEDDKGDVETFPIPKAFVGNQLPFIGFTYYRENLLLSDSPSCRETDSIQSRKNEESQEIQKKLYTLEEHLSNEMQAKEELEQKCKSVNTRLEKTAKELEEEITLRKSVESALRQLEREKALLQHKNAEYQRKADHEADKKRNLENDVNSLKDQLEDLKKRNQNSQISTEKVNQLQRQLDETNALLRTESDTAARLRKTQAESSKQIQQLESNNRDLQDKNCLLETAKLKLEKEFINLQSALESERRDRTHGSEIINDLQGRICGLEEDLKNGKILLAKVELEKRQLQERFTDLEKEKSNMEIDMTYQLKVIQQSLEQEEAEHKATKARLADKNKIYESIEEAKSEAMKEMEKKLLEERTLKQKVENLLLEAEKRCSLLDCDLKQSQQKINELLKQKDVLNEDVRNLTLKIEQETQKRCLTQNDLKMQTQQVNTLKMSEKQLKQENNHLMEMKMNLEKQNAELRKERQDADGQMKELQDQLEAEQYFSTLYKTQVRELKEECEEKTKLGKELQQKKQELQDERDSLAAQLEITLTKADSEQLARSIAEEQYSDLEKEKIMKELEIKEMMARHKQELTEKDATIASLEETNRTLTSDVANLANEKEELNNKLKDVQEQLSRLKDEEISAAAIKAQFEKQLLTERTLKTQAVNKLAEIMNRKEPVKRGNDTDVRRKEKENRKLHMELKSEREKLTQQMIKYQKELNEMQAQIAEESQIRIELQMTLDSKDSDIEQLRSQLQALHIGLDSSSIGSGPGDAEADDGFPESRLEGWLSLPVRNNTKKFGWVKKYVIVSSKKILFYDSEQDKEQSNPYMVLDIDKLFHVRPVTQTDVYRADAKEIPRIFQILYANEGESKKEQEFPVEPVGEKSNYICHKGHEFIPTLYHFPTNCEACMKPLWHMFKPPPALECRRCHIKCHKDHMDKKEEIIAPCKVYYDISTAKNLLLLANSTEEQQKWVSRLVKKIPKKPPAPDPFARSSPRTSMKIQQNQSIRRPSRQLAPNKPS

Structure (SMILES) | IC50
Cc1c(F)cccc1CN1C(=O)N(c2ccc(-c3cn[nH]c3)cc2)CC12CCN(C(=O)C1(C)COC1)CC2 [Example 189, 3-(4-(1H-pyrazol-4-yl)phenyl)-1-(3-fluoro-2-methylbenzyl)-8-(3-methyloxetane-3-carbonyl)-1,3,8-triazaspiro[4.5]decan-2-one] | 3 to 30 nM
COc1cccc(CN2C(=O)N(c3ccc(-c4cn[nH]c4)cc3)CC23CCN(CC2CCOCC2)CC3)c1 [Example 233, 3-(4-(1H-pyrazol-4-yl)phenyl)-1-(3-methoxy-benzyl)-8-((tetrahydro-2H-pyran-4-yl)methyl)-1,3,8-triazaspiro [4.5]decan-2-one] | < 3 nM
COc1cccc(CN2C(=O)N(c3ccc(-c4cn[nH]c4)c(OC)n3)CC23CCN(CC(C)O)CC3)c1 (stereo not drawn) [Example 147, 8-(2-hydroxypropyl)-3-(6-methoxy-5-(1H-pyrazol-4-yl)pyridin-2-yl)-1-(3-methoxybenzyl)-1,3,8-triazaspiro[4.5]decan-2-one] | < 3 nM
CCc1nc(N2CC3(CCN(C(=O)OC)CC3)N(Cc3cccc(F)c3C)C2=O)ccc1-c1cn[nH]c1 [Example 104, methyl 3-(6-ethyl-5-(1H-pyrazol-4-yl)pyridin-2-yl)-1-(3-fluoro-2-methylbenzyl)-2-oxo-1,3,8-triazaspiro[4.5]decane-8-carboxylate] | < 3 nM
COc1cc(F)cc(CN2C(=O)N(c3ccc(-c4cn[nH]c4)cc3)CC23CCN(C(=O)C(C)(C)O)CC3)c1 [Example 190, 3-(4-(1H-pyrazol-4-yl)phenyl)-1-(3-fluoro-5-methoxybenzyl)-8-(2-hydroxy-2-methylpropanoyl)-1,3,8-triazaspiro[4.5] decan-2-one] | < 3 nM
O=C1N(c2ccc(-c3cn[nH]c3)cc2)CC2(CCNCC2)N1Cc1cccc(O)c1 [Example 62, 3-(4-(1H-pyrazol-4-yl)phenyl)-1-(3-hydroxybenzyl)-1,3,8-triazaspiro[4.5]decan-2-one] | < 3 nM
CCc1nc(N2CC3(CCNCC3)N(Cc3cccc(OC)c3)C2=O)ccc1-c1cn[nH]c1 [Example 75, 3-(6-ethyl-5-(1H-pyrazol-4-yl)pyridin-2-yl)-1-(3-methoxybenzyl)-1,3,8-triazaspiro[4.5]decan-2-one, TFA] | < 3 nM
COc1cccc(CN2C(=O)N(c3ccc(-c4cn[nH]c4)cc3)CC23CCN(CC2CCOC2)CC3)c1 (stereo not drawn) [Example 114, 3-(4-(1H-pyrazol-4-yl)phenyl)-1-(3-methoxybenzyl)-8-((tetrahydrofuran-3-yl)methyl)-1,3,8-triazaspiro[4.5]decan-2-one] | < 3 nM
COc1cccc(NC2C(=O)N(c3ccc(-c4cn[nH]c4)cc3)CC23CN(C(C)=O)C3)c1 (stereo not drawn) [Example 244, 6-(4-(1H-pyrazol-4-yl)phenyl)-2-acetyl-8-((3-methoxy-phenyl)amino)-2,6-diazaspiro [3.4]octan-7-one] | 250 to 3000 nM
COc1cccc(CN2C(=O)N(c3ccc(-c4cn[nH]c4)cc3)CC23CCN(CC2CCCC2)CC3)c1 [Example 118, 3-(4-(1H-pyrazol-4-yl)phenyl)-8-(cyclopentylmethyl)-1-(3-methoxybenzyl)-1,3,8-triazaspiro[4.5]decan-2-one] | < 3 nM
CCc1nc(N2CC3(CCN(CCC(F)(F)F)CC3)N(Cc3cccc(F)c3C)C2=O)ccc1-c1cn[nH]c1 [Example 126, 3-(6-ethyl-5-(1H-pyrazol-4-yl)pyridin-2-yl)-1-(3-fluoro-2-methylbenzyl)-8-(3,3,3-trifluoropropyl)-1,3,8-triazaspiro[4.5]decan-2-one] | 3 to 30 nM
CCc1nc(N2CC3(CCN(C(=O)C(C)(C)O)CC3)N(Cc3cc(F)cc(OC)c3)C2=O)ccc1-c1cn[nH]c1 [Example 187, 3-(6-ethyl-5-(1H-pyrazol-4-yl)pyridin-2-yl)-1-(3-fluoro-5-methoxybenzyl)-8-(2-hydroxy-2-methylpropanoyl)-1,3,8-triazaspiro[4.5]decan-2-one] | < 3 nM
COc1cccc(NC2C(=O)N(c3ncc(-c4cn[nH]c4)c(OC)n3)CC23CCN(C(=O)c2cnn4ccccc24)CC3)c1 (stereo not drawn) [Example 243, 2-(4-methoxy-5-(1H-pyrazol-4-yl)pyrimidin-2-yl)-4-((3-methoxyphenyl)amino)-8-(pyrazolo[1,5-a]pyridine-3-carbonyl)-2,8-diazaspiro[4.5]decan-3-one] | 250 to 3000 nM
COc1cccc(CN2C(=O)N(c3ccc(-c4cn[nH]c4)cc3)CC23CCN(CC(C)O)CC3)c1 (single isomer, unassigned) [Example 139, 3-(4-(1H-pyrazol-4-yl)phenyl)-8-(2-hydroxypropyl)-1-(3-methoxybenzyl)-1,3,8-triazaspiro[4.5]decan-2-one] | < 3 nM
COc1cccc(CN2C(=O)N(c3ncc(-c4cn[nH]c4)c(OC)n3)CC23CCN(C(=O)CC(C)C)CC3)c1 [Example 214, 3-(4-methoxy-5-(1H-pyrazol-4-yl)pyrimidin-2-yl)-1-(3-methoxybenzyl)-8-(3-methylbutanoyl)-1,3,8-triazaspiro[4.5]decan-2-one] | 3 to 30 nM
Cc1c(F)cccc1CN1C(=O)N(c2ccc(-c3cn[nH]c3)cc2)CC12CCN(CCO)CC2 [Example 143, 3-(4-(1H-pyrazol-4-yl)phenyl)-1-(3-fluoro-2-methylbenzyl)-8-(2-hydroxyethyl)-1,3,8-triazaspiro[4.5]decan-2-one] | < 3 nM
COc1cccc(CN2C(=O)N(c3ccc(-c4cn[nH]c4)cc3)CC23CCN(C(=O)N(C)C)CC3)c1 [Example 93, 3-(4-(1H-pyrazol-4-yl)phenyl)-1-(3-methoxybenzyl)-N,N-dimethyl-2-oxo-1,3,8-triazaspiro[4.5]decane-8-carboxamide] | < 3 nM

Now from value to molecule:

IC50 | Structure (SMILES)
250 to 3000 nM | O=C1N(c2ccc(-c3cn[nH]c3)cc2)CC2(CCOCC2)N1Cc1c(F)cccc1F [Example 23, 3-(4-(1H-pyrazolo-4-yl)phenyl)-1-(2,6-difluorobenzyl)-8-oxa-1,3-diazaspiro[4.5]decan-2-one]
< 3 nM | COc1cc(F)cc(CN2C(=O)N(c3ccc(-c4cn[nH]c4)cc3)CC23CCOCC3)c1 [Example 10, 3-(4-(1H-pyrazol-4-yl)phenyl)-1-(3-fluoro-5-methoxybenzyl)-8-oxa-1,3-diazaspiro[4.5]decan-2-one]
< 3 nM | COc1cc(F)cc(CN2C(=O)N(c3ccc(-c4cn[nH]c4)cc3)CC23CCNCC3)c1 [Example 58, 3-(4-(1H-pyrazol-4-yl)phenyl)-1-(3-fluoro-5-methoxybenzyl)-1,3,8-triazaspiro[4.5]decan-2-one, TFA]
3 to 30 nM | COCC(=O)N1CCC2(CC1)CN(c1ccc(-c3cn[nH]c3)cn1)C(=O)N2Cc1cccc(OC)c1 [Example 197, 3-(5-(1H-pyrazol-4-yl)pyridin-2-yl)-8-(2-methoxyacetyl)-1-(3-methoxybenzyl)-1,3,8-triazaspiro[4.5]decan-2-one]
< 3 nM | O=C(NC1CCOC1)c1cccc(CN2C(=O)N(c3ccc(-c4cn[nH]c4)cc3)CC23CCOCC3)c1 (stereo not drawn) [Example 40, 3-((3-(4-(1H-pyrazol-4-yl)phenyl)-2-oxo-8-oxa-1,3-diazaspiro[4.5]decan-1-yl)methyl)-N-(tetrahydrofuran-3-yl)benzamide]
< 3 nM | COc1cccc(CN2C(=O)N(c3ccc(-c4cn[nH]c4)cc3)CC23CCN(C(=O)CO)CC3)c1 [Example 176, 3-(4-(1H-pyrazol-4-yl)phenyl)-8-(2-hydroxyacetyl)-1-(3-methoxybenzyl)-1,3,8-triazaspiro[4.5]decan-2-one]
< 3 nM | COc1cccc(CN2C(=O)N(c3ncc(-c4cn[nH]c4)c(OC)n3)CC23CCN(C(=O)CN(C)C)CC3)c1 [Example 210, 8-(2-(dimethylamino)acetyl)-3-(4-methoxy-5-(1H-pyrazol-4-yl)pyrimidin-2-yl)-1-(3-methoxybenzyl)-1,3,8-triazaspiro[4.5]decan-2-one]
< 3 nM | COc1cccc(CN2C(=O)N(c3ccc(-c4cn[nH]c4)cc3)CC23CCN(CC(C)O)CC3)c1 (single isomer, unassigned) [Example 140, 3-(4-(1H-pyrazol-4-yl)phenyl)-8-(2-hydroxypropyl)-1-(3-methoxybenzyl)-1,3,8-triazaspiro[4.5]decan-2-one]
30 to 250 nM | O=C1N(c2ccc(-c3cn[nH]c3)cc2)CC2(CCOCC2)N1CC1CCCCC1 [Example 30, 3-(4-(1H-pyrazol-4-yl)phenyl)-1-(cyclohexylmethyl)-8-oxa-1,3-diazaspiro[4.5]decan-2-one]
250 to 3000 nM | COC(=O)N1CCC2(CC1)CN(c1ccc(-c3cn[nH]c3)cc1)C(=O)C2Nc1cccc(OC)c1 (stereo not drawn) [Example 251, methyl 2-(4-(1H-pyrazol-4-yl)phenyl)-4-((3-methoxy-phenyl)amino)-3-oxo-2,8-diazaspiro [4.5]decane-8-carboxylate]
< 3 nM | COc1nc(N2CC3(CCN(CC(C)O)CC3)N(Cc3cccc(F)c3C)C2=O)ccc1-c1cn[nH]c1 (stereo not drawn) [Example 166, 1-(3-fluoro-2-methylbenzyl)-8-(2-hydroxypropyl)-3-(6-methoxy-5-(1H-pyrazol-4-yl)pyridin-2-yl)-1,3,8-triazaspiro[4.5]decan-2-one]
250 to 3000 nM | COc1cccc(NC2C(=O)N(c3ccc(-c4cn[nH]c4)cn3)CC23CCN(C(=O)CC(C)c2ccccc2)CC3)c1 (stereo not drawn) [Example 254, 2-(5-(1H-pyrazol-4-yl)pyridin-2-yl)-4-((3-methoxy-phenyl)amino)-8-(3-phenyl-butanoyl)-2,8-diazaspiro [4.5]decan-3-one]
30 to 250 nM | O=C(c1cccc(CN2C(=O)N(c3ccc(-c4cn[nH]c4)cc3)CC23CCOCC3)c1)N1CC[C@H](O)C1 [Example 44, (S)-3-(4-(1H-pyrazol-4-yl)phenyl)-1-(3-(3-hydroxypyrrolidine-1-carbonyl)benzyl)-8-oxa-1,3-diazaspiro[4.5]decan-2-one]

Source: patent publication US10787450B2 (BRISTOL-MYERS SQUIBB COMPANY, priority 2016, dated 2020)
